Experimental data from patent publication US20120184728A1, “Compound Amycolose Derivative, Method for Producing the Same, and Use of the Same” (priority 2009, published 2012).
“Also recorded” adds a separate entry of the source.

System: Human prostate stromal cells PrSC
Test: Cell growth suppressive activity (MTT, Test Example 1)
Format: cell-based
Conditions: 0.024 to 100 μg/mL, 3 days culture, MTT absorbance at 570 nm, result in words
Protocol: Human prostate stromal cells PrSC (product of Bio Whittaker) were added to DMEM (product of NISSUI PHARMACEUTICAL CO., LTD.) containing 10% by mass FBS (fetal bovine serum) (product of ICN Biomedicals) to prepare a cell suspension having a concentration of 5×10^4 cells/mL. The cell suspension was placed in a 96-well plate in an amount of 0.1 mL per well. Each of the amycolose derivatives (compounds 1, 2 and 3) was added to the wells at a final concentration of 0.024 μg/mL, 0.098 μg/mL, 0.391 μg/mL, 1.563 μg/mL, 6.25 μg/mL, 25 μg/mL or 100 μg/mL, followed by culturing in an incubator for 3 days at 37° C. and 5% CO2. Then, MTT (3-[4,5-dimethylthiazol-2-yl]-2,5-diphenyltetrazolium bromide) (product of Sigma Co.), which had been adjusted with a phosphate buffer to have a concentration of 5 mg/mL, was added to each well in an amount of 10 μL, followed by culturing in an incubator for 4 hours at 37° C. and 5% CO2. Subsequently, 10 μL of 20% by mass SDS (sodium dodecylsulphate) prepared with 10 mM hydrochloric acid was added to each well, and the plate was left to stand still overnight at 37° C. to dissolve formazan formed from MTT. Thereafter, the plate was measured for absorbance at 570 nm with an absorptiometer (hereinafter may be referred to as “amycolose derivative-added sample's absorbance”). Regarding as 100% the absorbance measured when no amycolose derivative was added (hereinafter may be referred to as “control absorbance”), the cell growth rate in each of the amycolose derivatives (compounds 1, 2 and 3) at the above concentrations was calculated using the following equation (1).
Cell growth rate (%)=amycolose derivative-added sample's absorbance/control absorbance×100 Equation (1)

SMILES | cell growth suppressive activity (cell growth rate, FIG. 5)
CO[C@@H]1C[C@@](O)([C@H](C)NC(=O)c2[nH]c(C)c(Cl)c2Cl)[C@H](O)[C@@H](C)O1 [compound 3] | exhibit cell growth suppressive activity
Cc1[nH]c(C(=O)N[C@@H](C)[C@]2(O)CC(O)O[C@H](C)[C@H]2O)c(Cl)c1Cl (stereo partly drawn) [compound 1] | exhibit cell growth suppressive activity; also recorded: remarkable cell growth suppressive activity
CO[C@H]1C[C@@](O)([C@H](C)NC(=O)c2[nH]c(C)c(Cl)c2Cl)[C@H](O)[C@@H](C)O1 [compound 2] | exhibit cell growth suppressive activity
